Common to all, as to assay type: cell-based, human
One test concerns CD3-stimulated T cells. Kind of test: CD3 stimulation of T cells: metabolite titration curves, 3[H]-thymidin incorporation. Conditions: anti-CD3 antibody, 3 days. The text has this: • (a) Allogeneic T-cell response. DCs were infected with recombinant IDO-adeno-GFP (DC-IDO-GFP), IDO-adeno (DC-IDO) or with control adenoviruses (DC-adeno) at a MOI (multiplicity of infection) up to 500 for 2 days. Lymphocytes (PBMCs) were separated from peripheral blood of healthy donors by density gradient centrifugation and typed for HLA antigens. Only HLA-DR-different responder lymphocytes were used for DC-induced stimulation. Native DCs only, lymphocytes only, native DCs + allogeneic lymphocytes, DC-IDO-GFP + allogeneic lymphoytes, DC-IDO + allogeneic lymphoytes, DC-adeno + allogeneic lymphocytes (each time 10^5 DC + 10^5 lymphocytes in 0.2ml medium) were cultured in RPMI 1640 medium (Gibco BRL Life Technologies GmbH, Eggenstein, Germany) with 10% fetal calf serum (FCS) (final tryptophan concentration 5.25 mg/l = 25.69 uM) and Penicillin G/Streptomycin. […] In order to verify whether IDO expression or adenovirus infection harm the DCs, 10^5 cells were infected with IDO-adeno-GFP, IDO-adenovirus, or adenovirus only at a stepwise decreasing MOI (500, 250, 125, ........ 3.9) and cell viability was measured in FACS following double staining with 7-AAD and anti-CD83 antibody-PE. The percentage of dead cells never exceeded 30% for any MOI following IDO-adeno-GFP- or IDO-adeno-infection and 40% following adenovirus(control)-infection. Moreover, these values were not higher than those of native DCs cultured for the same period of time. The experiment was repeated using ethidium bromide or trypan blue staining with virtually the same result. […] Peripheral blood lymphocytes were cultured (10^5 cells/well) in RPMI 1640 (10% FCS) with anti CD3 monoclonal antibody (Ortho Diagnostic Systems Inc., Raritan, NJ) (final dilution 1:200). […] Kynurenine, 3-hydroxykynurenine, anthranilic acid, 3-hydroxyanthranilic acid, and quinolinic acid (Sigma-Aldrich Chemie GmbH, Taufkirchen, Germany)(for all substances purity>98%) were dissolved in RPMI 1640 and added to cell cultures at various concentrations. In an other experiment, to determine whether the metabolites have an additive effect, equal concentrations of the compounds were mixed and added to the cultures. […] Positive controls consisted of CD3-stimulated cells without metabolites and negative controls of unstimulated cells. • (d) Restimulation of suppressed T cells. Lymphocytes (10^5 cells/well) were cultured in RPMI 1640 (10% FCS) with anti-CD3 monoclonal antibody (final dilution 1:200) and kynurenine (dilution series). […] Controls consisted of cells prestimulated with anti-CD3 but not pretreated with kynurenine. In an other restimulation experiment lymphocytes were stimulated with allogeneic DCs as described, in the presence (47-1500µM) or absence of kynurenine. Control cultures contained DCs or lymphocytes only. After 5 days the cells were extensively washed, and restimulated with an identical number of DCs derived from the same donor or from third party donors. […] In order to define the concentration of tryptophan which reduces T- lymphocyte proliferation in our test system, 10^5 lymphocytes were incubated in tryptophan-free RPMI 1640 medium (Gibco BRL Life Technologies) with or without 10% FCS, stimulated with anti-CD3 monoclonal antibody, and various amounts (0-38µM) of tryptophan were added. Unimpaired proliferation was observed down to 0.30µM (medium with FCS) and 1 .20µM (without FCS). Complete inhibition was not obtained at any concentration (positive control 100% proliferation; maximal suppression in medium with FCS: approx. 66% and without FCS: approx. 33%). All cell cultures were done in triplicate.
All tests were carried out in triplicate and results are given as mean +standard deviation. […] Thereafter, the concentration of substance giving 50% proliferation was calculated by regression.

The test system of test [1] is T cells stimulated by allogeneic DCs. Put plainly: Allogeneic T-cell response: lymphocyte proliferation induced by allogeneic dendritic cells, 3[H]-thymidin incorporation. Conditions: 6 days. An excerpt: DCs were generated from CD14-positive blood monocytes as previously described ("Schuler G. and N. Romani", 1997, Adv. Exp. Med. Biol. 417:7-13). Briefly, peripheral blood mononuclear cells of an HLA-typed healthy donor were separated by density gradient centrifugation and CD14-positive monocytes were isolated by adherence to culture dishes. Non-adherent cells were discarded. After culture of monocytes in the presence of human rGM-CSF (666 Units/ml) and rIL-4 (1000 Units/ml) for 7 days, rTNF-α (10 ng/ml) was added for an additional 2 days to induce maturation of DC. Characterization of DC phenotype was performed by flow cytometry using the following mouse monoclonal antibodies: anti-CD 14-FITC, anti-HLA-DR-FITC, anti-CD 1a-PE, anti-CD86-PE, and anti-CD83-PE (BD Biosciences Heidelberg, Germany). DCs were kept in liquid nitrogen until use.
• (a) Allogeneic T-cell response. DCs were infected with recombinant IDO-adeno-GFP (DC-IDO-GFP), IDO-adeno (DC-IDO) or with control adenoviruses (DC-adeno) at a MOI (multiplicity of infection) up to 500 for 2 days. […] After 5 days, ^3[H]-thymidin was added for 12hrs and the number of counts (counts per minute = cpm) determined in a (3-counter (Inotech Biosystems, Lansing, MI). In order to verify whether IDO expression or adenovirus infection harm the DCs, 10^5 cells were infected with IDO-adeno-GFP, IDO-adenovirus, or adenovirus only at a stepwise decreasing MOI (500, 250, 125, ........ 3.9) and cell viability was measured in FACS following double staining with 7-AAD and anti-CD83 antibody-PE. The percentage of dead cells never exceeded 30% for any MOI following IDO-adeno-GFP- or IDO-adeno-infection and 40% following adenovirus(control)-infection. […] After 2 days, cell proliferation was assessed by measuring ^3[H]-thymidin incorporation (cpm) as described. • (c) Tryptophan metabolite titration curves. […] After 2 days, ^3[H] thymidin was added and the number of counts recorded. […] After another 2 days, ^3[H] thymidin was added and cpm determined. […]

The next test has as its system T cells. Kind of test: Detection of cell death: 7-AAD staining of anti-CD3 stimulated lymphocytes, FACScan. Conditions: anti-CD3, 3 days; 1501 µM kynurenine, 349µM 3-hydroxykynurenine, 510µM 3-hydroxyanthranilic acid, mixture 64 µM of each compound. The protocol:
Lymphocytes were stimulated in culture with anti-CD3 monoclonal antibody (s. above) in the presence or absence (control) of kynurenine (1501µM), 3-hydroxyanthranilic acid (510µM), 3-hydroxykynurenine (348µM), or metabolite mixture (64µM kynurenine + 64µM 3-hydroxykynurenine + 64µM anthranilic acid + 64µM 3-hydroxyanthranilic acid + […] quinolinic acid). After 3 days the cells were washed and resuspended in PBS (10^6/ml). Thereafter, the cells (100µ1 suspension) were labeled with anti-CD3-FITC antibody (3 µl), stained with 7-AAD (5µl) for 15 min, and the percentage of 7-AAD-positive (dead) T cells was determined in a FACScan. In an other experiment T cells, B cells, NK-cells, or DCs were separated from PBMCs by magnetic beads or generated as described, and cultured (5x10^5 cells/ml) with a mixture of kynurenine metabolites (kynurenine + 3-hydroxykynurenine + anthranilic acid + 3-hydroxyanthranilic acid + quinolinic acid)(8, 16, or 32µM respectively for each compound). In one setting T cells were activated with anti-CD3 antibody. Cell death was measured daily for 5 days by 7-AAD staining and expressed in percentage of dead cells.

For test [2], the system named is T- lymphocyte proliferation. Kind of test: Tryptophan titration curve: proliferation of anti-CD3 stimulated lymphocytes in tryptophan-free medium. Conditions: for maximal suppression: positive control 100% proliferation. An excerpt: • (a) Allogeneic T-cell response. DCs were infected with recombinant IDO-adeno-GFP (DC-IDO-GFP), IDO-adeno (DC-IDO) or with control adenoviruses (DC-adeno) at a MOI (multiplicity of infection) up to 500 for 2 days. Lymphocytes (PBMCs) were separated from peripheral blood of healthy donors by density gradient centrifugation and typed for HLA antigens. Only HLA-DR-different responder lymphocytes were used for DC-induced stimulation. Native DCs only, lymphocytes only, native DCs + allogeneic lymphocytes, DC-IDO-GFP + allogeneic lymphoytes, DC-IDO + allogeneic lymphoytes, DC-adeno + allogeneic lymphocytes (each time 10^5 DC + 10^5 lymphocytes in 0.2ml medium) were cultured in RPMI 1640 medium (Gibco BRL Life Technologies GmbH, Eggenstein, Germany) with 10% fetal calf serum (FCS) (final tryptophan concentration 5.25 mg/l = 25.69 uM) and Penicillin G/Streptomycin. After 5 days, ^3[H]-thymidin was added for 12hrs and the number of counts (counts per minute = cpm) determined in a (3-counter (Inotech Biosystems, Lansing, MI). In order to verify whether IDO expression or adenovirus infection harm the DCs, 10^5 cells were infected with IDO-adeno-GFP, IDO-adenovirus, or adenovirus only at a stepwise decreasing MOI (500, 250, 125, ........ 3.9) and cell viability was measured in FACS following double staining with 7-AAD and anti-CD83 antibody-PE. The percentage of dead cells never exceeded 30% for any MOI following IDO-adeno-GFP- or IDO-adeno-infection and 40% following adenovirus(control)-infection. Moreover, these values were not higher than those of native DCs cultured for the same period of time. […] After 2 days, cell proliferation was assessed by measuring ^3[H]-thymidin incorporation (cpm) as described. • (c) Tryptophan metabolite titration curves. […] After 2 days, ^3[H] thymidin was added and the number of counts recorded. […] After another 2 days, ^3[H] thymidin was added and cpm determined. […] 3[H] thymidin was added to all cultures and the number of counts (cpm) determined. • (e) Tryptophan titration curve. […]

Data on six compounds can be found in patent EP1369114A1, “Use of tryptophan metabolites as pharmaceutical agents” (Terness, Peter, Priv. Doz. Dr., priority 2002, dated 2003).

Regarding `Nc1ccccc1C(=O)O` [anthranilic acid], the “suppression of T cell response (in words)” value (from here on “suppression … (in words)”) with CD3-stimulated T cells is given as “suppressive but at higher concentrations”. As to `Nc1ccccc1C(=O)C[C@@H](N)C(=O)O` [D-kynurenine], in the test on CD3-stimulated T cells, the “suppression … (in words)” value was “The same effect was noted”. For the same compound, the “inhibition of proliferation of T cells stimulated by allogeneic DCs (in words)” value in test [1] is reported as “The same effect was noted”.

With `Nc1c(O)cccc1C(=O)O` [3-hydroxyanthranilic acid], the IC50 in the test with CD3-stimulated T cells (Homo sapiens, T-cell, 72 h, single substance, read-out: I50 of proliferation of CD3-stimulated T cells) is 96 µM. Besides, the “suppression … (in words)” value with CD3-stimulated T cells is on record as “strongly suppress T cells”. In addition, in the test with T cells, the “dead (7-AAD-positive) T cells (in words)” value was “virtually all cells died”. On to `O=C(O)c1cccnc1C(=O)O` [quinolinic acid], for which, in the test on CD3-stimulated T cells, the “suppression … (in words)” value was “suppressive but at higher concentrations”. In the case of `N[C@@H](Cc1c[nH]c2ccccc12)C(=O)O` [tryptophan], in test [2] (medium with FCS), the “lowest tryptophan concentration with unimpaired proliferation” value amounted to 0.30 µM. The maximal suppression entry in test [2] (medium with FCS) is given as “approx. 66%”; in test [2] (medium without FCS) it was “approx. 33%”.

In the case of `NC(CC(=O)c1ccccc1NC=O)C(=O)O` (centres unmarked) [N-formylkynurenine], the “suppression … (in words)” value with CD3-stimulated T cells is “Suppression of T-cell response can also be achieved”.
